Measured values: ChEMBL document CHEMBL1142897, “Synthesis, characterization and antimicrobial activity of Fe(II), Zn(II), Cd(II) and Hg(II) complexes with 2,6-bis(benzimidazol-2-yl) pyridine ligand” (2007)

How the values were obtained:
Staphylococcus aureus [1] = experiment: Antibacterial activity against Staphylococcus aureus after 72 hrs by disk diffusion method; format: functional
Klebsiella pneumoniae [2] = experiment: Antibacterial activity against Klebsiella pneumoniae after 72 hrs by disk diffusion method; format: functional
Bacillus cereus [3] = experiment: Antibacterial activity against Bacillus cereus after 72 hrs by disk diffusion method; format: functional
Micrococcus luteus [4] = experiment: Antibacterial activity against Micrococcus luteus after 72 hrs by disk diffusion method; format: functional
Proteus vulgaris [5] = experiment: Antibacterial activity against Proteus vulgaris after 72 hrs by disk diffusion method; format: functional
[6] = system: Mycolicibacterium smegmatis; experiment: Antibacterial activity against Mycobacterium smegmatis after 72 hrs by disk diffusion method; format: functional
Listeria monocytogenes [7] = experiment: Antibacterial activity against Listeria monocytogenes after 72 hrs by disk diffusion method; format: functional
Pseudomonas aeruginosa [8] = experiment: Antibacterial activity against Pseudomonas aeruginosa after 72 hrs by disk diffusion method; format: functional
Escherichia coli [9] = experiment: Antibacterial activity against Escherichia coli after 72 hrs by disk diffusion method; format: functional
Candida albicans [10] = experiment: Antifungal activity against Candida albicans after 24 hrs by disk diffusion method; format: functional
Kluyveromyces marxianus [11] = experiment: Antifungal activity against Kluyveromyces fragilis after 24 hrs by disk diffusion method; format: functional
Rhodotorula mucilaginosa [12] = experiment: Antifungal activity against Rhodotorula rubra after 24 hrs by disk diffusion method; format: functional
[13] = system: Hanseniaspora guilliermondii; experiment: Antifungal activity against Hanseniaspora guilliermondii after 24 hrs by disk diffusion method; format: functional
Debaryomyces hansenii [14] = experiment: Antifungal activity against Debaryomyces hansenii after 24 hrs by disk diffusion method; format: functional
Kluyveromyces marxianus [15] = experiment: Antifungal activity against Kluyveromyces fragilis after 24 hrs by dilution method; format: functional, organism-based
Rhodotorula mucilaginosa [16] = experiment: Antifungal activity against Rhodotorula rubra after 24 hrs by dilution method; format: functional, organism-based
Candida albicans [17] = experiment: Antifungal activity against Candida albicans after 24 hrs by dilution method; format: functional, organism-based
[18] = system: Hanseniaspora guilliermondii; experiment: Antifungal activity against Hanseniaspora guilliermondii after 24 hrs by dilution method; format: functional, organism-based
Debaryomyces hansenii [19] = experiment: Antifungal activity against Debaryomyces hansenii after 24 hrs by dilution method; format: functional, organism-based
Escherichia coli [20] = experiment: Antibacterial activity against Escherichia coli after 24 hrs by dilution method; format: functional, organism-based
Staphylococcus aureus [21] = experiment: Antibacterial activity against Staphylococcus aureus after 24 hrs by dilution method; format: functional, organism-based
Klebsiella pneumoniae [22] = experiment: Antibacterial activity against Klebsiella pneumoniae after 24 hrs by dilution method; format: functional, organism-based
Bacillus cereus [23] = experiment: Antibacterial activity against Bacillus cereus after 24 hrs by dilution method; format: functional, organism-based
Micrococcus luteus [24] = experiment: Antibacterial activity against Micrococcus luteus after 24 hrs by dilution method; format: functional, organism-based
Proteus vulgaris [25] = experiment: Antibacterial activity against Proteus vulgaris after 24 hrs by dilution method; format: functional, organism-based
[26] = system: Mycolicibacterium smegmatis; experiment: Antibacterial activity against Mycobacterium smegmatis after 24 hrs by dilution method; format: functional, organism-based
Listeria monocytogenes [27] = experiment: Antibacterial activity against Listeria monocytogenes after 24 hrs by dilution method; format: functional, organism-based
Pseudomonas aeruginosa [28] = experiment: Antibacterial activity against Pseudomonas aeruginosa after 24 hrs by dilution method; format: functional, organism-based

Row | Molecule | inhibition zone (IZ) (Staphylococcus aureus [1]) | inhibition zone (IZ) (Klebsiella pneumoniae [2]) | inhibition zone (IZ) (Bacillus cereus [3]) | inhibition zone (IZ) (Micrococcus luteus [4]) | inhibition zone (IZ) (Proteus vulgaris [5]) | inhibition zone (IZ) [6] | inhibition zone (IZ) (Listeria monocytogenes [7]) | inhibition zone (IZ) (Pseudomonas aeruginosa [8]) | inhibition zone (IZ) (Escherichia coli [9]) | inhibition zone (IZ) (Kluyveromyces marxianus [11]) | inhibition zone (IZ) (Rhodotorula mucilaginosa [12]) | inhibition zone (IZ) [13] | inhibition zone (IZ) (Debaryomyces hansenii [14]) | further results
1 | CC1(C)S[C@@H]2[C@H](NC(=O)Cc3ccccc3)C(=O)N2[C@H]1C(=O)O [PENICILLIN G] | 13 mm | 18 mm | 14 mm | 36 mm | 10 mm | 15 mm | 10 mm | 8 mm | 18 mm | – | – | – | – | –
2 | CC1(C)S[C@@H]2[C@H](NC(=O)[C@H](N)c3ccccc3)C(=O)N2[C@H]1C(=O)O [AMPICILLIN] | 16 mm | 14 mm | 12 mm | 32 mm | 16 mm | 21 mm | 12 mm | 10 mm | 12 mm | – | – | – | – | –
3 | Clc1ccccc1C(c1ccccc1)(c1ccccc1)n1ccnc1 [CLOTRIMAZOLE] | – | – | – | – | – | – | – | – | – | 18 mm | 16 mm | 22 mm | 18 mm | inhibition zone (IZ) (Candida albicans [10]): 15 mm
4 | CC1COc2c(N3CCN(C)CC3)c(F)cc3c(=O)c(C(=O)O)cn1c23 (configuration not stated) [OFLOXACIN] | 24 mm | 28 mm | 30 mm | 28 mm | 28 mm | 32 mm | 30 mm | 44 mm | 30 mm | – | – | – | – | –
5 | CN[C@H](CC(C)C)C(=O)N[C@H]1C(=O)N[C@@H](CC(N)=O)C(=O)N[C@H]2C(=O)N[C@H]3C(=O)N[C@H](C(=O)N[C@H](C(=O)O)c4cc(O)cc(O)c4-c4cc3ccc4O)[C@H](O)c3ccc(c(Cl)c3)Oc3cc2cc(c3O[C@@H]2O[C@H](CO)[C@@H](O)[C@H](O)[C@H]2O[C@H]2C[C@](C)(N)[C@H](O)[C@H](C)O2)Oc2ccc(cc2Cl)[C@H]1O [VANCOMYCIN] | 13 mm | 22 mm | 18 mm | 34 mm | 20 mm | 20 mm | 26 mm | 10 mm | 22 mm | – | – | – | – | –
6 | CN(C)[C@@H]1C(O)=C(C(N)=O)C(=O)[C@@]2(O)C(O)=C3C(=O)c4c(O)cccc4[C@@](C)(O)[C@H]3C[C@@H]12 [TETRACYCLINE] | 26 mm | 30 mm | 25 mm | 22 mm | 26 mm | 24 mm | 28 mm | 34 mm | 28 mm | – | – | – | – | –
7 | NYSTATIN | – | – | – | – | – | – | – | – | – | 18 mm | 18 mm | 21 mm | 16 mm | MIC (Kluyveromyces marxianus [15]): 6.25 µg/mL; MIC (Rhodotorula mucilaginosa [16]): 6.25 µg/mL; MIC (Candida albicans [17]): 3.12 µg/mL; MIC [18]: 3.12 µg/mL; MIC (Debaryomyces hansenii [19]): 12.5 µg/mL
8 | CC(=O)N1CCN(c2ccc(OCC3COC(Cn4ccnc4)(c4ccc(Cl)cc4Cl)O3)cc2)CC1 (configuration not stated) [KETOCONAZOLE] | – | – | – | – | – | – | – | – | – | 16 mm | 22 mm | 24 mm | 14 mm | inhibition zone (IZ) (Candida albicans [10]): 21 mm
9 | GENTAMICIN | – | – | – | – | – | – | – | – | – | – | – | – | – | MIC (Escherichia coli [20]): 6.25 µg/mL; MIC (Staphylococcus aureus [21]): 25 µg/mL; MIC (Klebsiella pneumoniae [22]): 6.25 µg/mL; MIC (Bacillus cereus [23]): 6.25 µg/mL; MIC (Micrococcus luteus [24]): 25 µg/mL; MIC (Proteus vulgaris [25]): 6.25 µg/mL; MIC [26]: 12.5 µg/mL; MIC (Listeria monocytogenes [27]): 12.5 µg/mL; MIC (Pseudomonas aeruginosa [28]): 6.25 µg/mL
10 | CO/N=C(\C(=O)N[C@@H]1C(=O)N2C(C(=O)O)=C(COC(C)=O)CS[C@H]12)c1csc(N)n1 [CEFOTAXIME] | 12 mm | 13 mm | 14 mm | 32 mm | 18 mm | 11 mm | 16 mm | 54 mm | 10 mm | – | – | – | – | –
